Experimental findings from ChEMBL document CHEMBL1159126, “Salicylanilide carbamates: antitubercular agents active against multidrug-resistant Mycobacterium tuberculosis strains” (Bioorg Med Chem, 2010) are described below.

Structures are written as SMILES. In brackets after ≈: the same amount, converted by molar mass.

Series [1] has as its system Mycobacterium kansasii. The series can be described thus: Antimycobacterial activity against Mycobacterium kansasii 235/80 after 14 days by micromethod. Type of series: functional. The conditions noted are these: 235/80, 336 h.
The test system of series [2] is Mycobacterium kansasii. Description: Antimycobacterial activity against Mycobacterium kansasii 6509/96 after 14 days by micromethod. The class given is functional. The conditions noted are these: 6509/96, 336 h.
Series [3] has as its system Mycobacterium kansasii. The series can be described thus: Antimycobacterial activity against Mycobacterium kansasii 6509/96 after 21 days by micromethod. The class given is functional. The conditions noted are these: 6509/96, 504 h.
Series [4] concerns Mycobacterium kansasii. The series can be described thus: Antimycobacterial activity against Mycobacterium kansasii 235/80 after 21 days by micromethod. Type of series: functional. The conditions noted are these: 235/80, 504 h.
The test system of series [5] is Mycobacterium tuberculosis. Description: microbe, parasite or virus in culture. The conditions noted are these: 331/88, 504 h.
Description: Antimycobacterial activity against Mycobacterium tuberculosis 331/88 after 21 days by micromethod
Series [6] can be described thus: Partition coefficient, log P of the compound. The class given is physicochemical. The conditions noted are these: octanol/water.
Series [7] relates to Mycobacterium avium. Description: Antimycobacterial activity against Mycobacterium avium 330/88 after 14 days by micromethod. The class given is functional. The conditions noted are these: 330/88, 336 h.
For series [8], the system named is Mycobacterium avium. Description: Antimycobacterial activity against Mycobacterium avium 330/88 after 21 days by micromethod. The class given is functional. The conditions noted are these: 330/88, 504 h.
For series [9], the system named is Mycobacterium tuberculosis. Description: microbe, parasite or virus in culture. The conditions noted are these: 331/88, 336 h.
Description: Antimycobacterial activity against Mycobacterium tuberculosis 331/88 after 14 days by micromethod
The nature of series [10]: Toxicity against human HCT8 cells after 72 hrs by XTT assay. Type of series: cell-based, HCT-8.

On to `CCCCCNC(=O)Oc1ccc(Cl)cc1C(=O)Nc1cccc(Cl)c1`, for which the MIC in [1] is 8 µM (≈ 3.16 µg/mL); in series [2], 8 µM (≈ 3.16 µg/mL); in [3], 8 µM (≈ 3.16 µg/mL); in [4], 8 µM (≈ 3.16 µg/mL); in series [5], 4 µM (≈ 1.58 µg/mL); in series [7], 8 µM (≈ 3.16 µg/mL). Also, the values for the MIC in [8] and in series [9] were 8 µM (≈ 3.16 µg/mL) and 2 µM (≈ 0.791 µg/mL), respectively. The compound further came in with a logP in series [6] of 5.11.

Turning to `CCCCNC(=O)Oc1ccc(Cl)cc1C(=O)Nc1ccc(Cl)c(Cl)c1`, the MIC in series [1] was found to be 2 µM (≈ 0.831 µg/mL); in series [2], 2 µM (≈ 0.831 µg/mL); in [3] it was 4 µM (≈ 1.66 µg/mL); in series [4] it was 2 µM (≈ 0.831 µg/mL); in series [5], 1 µM (≈ 0.416 µg/mL); in series [7], 8 µM (≈ 3.33 µg/mL). For the same compound, the MIC amounted to 16 µM (≈ 6.65 µg/mL) in series [8] and 0.5 µM (≈ 0.208 µg/mL) in series [9]. Also, in series [6], the log partition coefficient (logP) came to 5.25. In series [10], the EC50 at 72 h turned out to be 38 µM.

For `CCCCNC(=O)Oc1ccc(Cl)cc1C(=O)Nc1ccc(Cl)cc1`, the MIC was determined as 4 µM (≈ 1.53 µg/mL) in series [1]; 2 µM (≈ 0.763 µg/mL) in [2]; 4 µM (≈ 1.53 µg/mL) in [3]; 4 µM (≈ 1.53 µg/mL) in [4]; 2 µM (≈ 0.763 µg/mL) in series [5]; 4 µM (≈ 1.53 µg/mL) in series [7]. The MIC in series [8] was determined as 8 µM (≈ 3.05 µg/mL); in series [9] it was 2 µM (≈ 0.763 µg/mL). In series [6], the logP was determined as 4.69.

Take `CCCCCCCCCCNC(=O)Oc1ccc(Cl)cc1C(=O)Nc1ccc(Cl)cc1`: the MIC in series [1] amounted to 8 µM (≈ 3.72 µg/mL); in series [2], 8 µM (≈ 3.72 µg/mL); in series [3] it was 8 µM (≈ 3.72 µg/mL); in series [4], 8 µM (≈ 3.72 µg/mL); in [5], 2 µM (≈ 0.931 µg/mL); in series [7] it was 8 µM (≈ 3.72 µg/mL). Moreover, the MIC was 8 µM (≈ 3.72 µg/mL) in [8] and 2 µM (≈ 0.931 µg/mL) in series [9]. This compound also displayed a logP in series [6] of 7.19.

Turning to `CCNC(=O)Oc1ccc(Cl)cc1C(=O)Nc1cccc(Cl)c1`, the MIC in series [1] worked out at 8 µM (≈ 2.83 µg/mL); in [2] it was 8 µM (≈ 2.83 µg/mL); in [3], 8 µM (≈ 2.83 µg/mL); in series [4], 8 µM (≈ 2.83 µg/mL); in series [5] it was 2 µM (≈ 0.706 µg/mL); in [7], 8 µM (≈ 2.83 µg/mL). Moreover, the MIC was 8 µM (≈ 2.83 µg/mL) in [8] and 2 µM (≈ 0.706 µg/mL) in [9]. Moreover, the logP in [6] was 3.79.

On to `CCCCCCCCCCNC(=O)Oc1ccc(Cl)cc1C(=O)Nc1cccc(Cl)c1`, for which the MIC in [1] was 8 µM (≈ 3.72 µg/mL); in series [2], 8 µM (≈ 3.72 µg/mL); in [3] it was 8 µM (≈ 3.72 µg/mL); in series [4], 8 µM (≈ 3.72 µg/mL); in series [5], 2 µM (≈ 0.931 µg/mL); in series [7] it was 8 µM (≈ 3.72 µg/mL). Moreover, the MIC came to 8 µM (≈ 3.72 µg/mL) in series [8] and 1 µM (≈ 0.465 µg/mL) in series [9]. In series [6], the logP came out at 7.19.

Consider `CCCCCCCCCNC(=O)Oc1ccc(Cl)cc1C(=O)Nc1ccc(Cl)cc1`, for which the MIC stood at 4 µM (≈ 1.81 µg/mL) in series [1]; 4 µM (≈ 1.81 µg/mL) in series [2]; 4 µM (≈ 1.81 µg/mL) in series [3]; 4 µM (≈ 1.81 µg/mL) in series [4]; 2 µM (≈ 0.903 µg/mL) in series [5]; 8 µM (≈ 3.61 µg/mL) in [7]. Besides, the MIC in series [8] was determined as 16 µM (≈ 7.22 µg/mL); in [9], 2 µM (≈ 0.903 µg/mL). In [6], this compound showed a logP of 6.78.

Take `CCCCCCCCCCCNC(=O)Oc1ccc(Cl)cc1C(=O)Nc1cccc(Cl)c1`: the MIC in series [1] came to 8 µM (≈ 3.84 µg/mL); in series [2], 8 µM (≈ 3.84 µg/mL); in series [3], 8 µM (≈ 3.84 µg/mL); in series [4] it was 8 µM (≈ 3.84 µg/mL); in series [5], 2 µM (≈ 0.959 µg/mL); in [7], 8 µM (≈ 3.84 µg/mL). Moreover, the MIC in [8] was found to be 8 µM (≈ 3.84 µg/mL); in series [9], 2 µM (≈ 0.959 µg/mL). The compound also gave a lipophilicity (logP) in [6] of 7.61.

As for `CCCCCCCCCCNC(=O)Oc1ccc(Cl)cc1C(=O)Nc1ccc(Cl)c(Cl)c1`, the MIC in series [1] was determined as 4 µM (≈ 2 µg/mL); in series [2], 2 µM (≈ 1 µg/mL); in series [3], 4 µM (≈ 2 µg/mL); in series [4], 4 µM (≈ 2 µg/mL); in series [5] it was 2 µM (≈ 1 µg/mL); in series [7] it was 8 µM (≈ 4 µg/mL). For the same compound, the MIC in series [8] was 8 µM (≈ 4 µg/mL); in series [9] it was 2 µM (≈ 1 µg/mL). Besides, the logP in series [6] was 7.77.

With `CCCCCCCNC(=O)Oc1ccc(Cl)cc1C(=O)Nc1ccc(Cl)cc1`, the MIC in series [1] stood at 8 µM (≈ 3.39 µg/mL); in series [2], 4 µM (≈ 1.69 µg/mL); in [3], 4 µM (≈ 1.69 µg/mL); in series [4] it was 8 µM (≈ 3.39 µg/mL); in series [5], 2 µM (≈ 0.847 µg/mL); in [7], 8 µM (≈ 3.39 µg/mL). For the same compound, the MIC in series [8] came out at 8 µM (≈ 3.39 µg/mL); in series [9] it was 2 µM (≈ 0.847 µg/mL). This compound also came in with a logP in series [6] of 5.94.

Regarding `CCCCCCCCCNC(=O)Oc1ccc(Cl)cc1C(=O)Nc1cccc(Cl)c1`, the MIC in [1] worked out at 4 µM (≈ 1.81 µg/mL); in [2], 4 µM (≈ 1.81 µg/mL); in series [3] it was 4 µM (≈ 1.81 µg/mL); in [4], 4 µM (≈ 1.81 µg/mL); in [5], 2 µM (≈ 0.903 µg/mL); in [7], 2 µM (≈ 0.903 µg/mL). Moreover, the MIC in series [8] was determined as 4 µM (≈ 1.81 µg/mL); in series [9], 1 µM (≈ 0.451 µg/mL). This compound had a logP in series [6] of 6.78.

`CCCCCCCCNC(=O)Oc1ccc(Cl)cc1C(=O)Nc1ccc(Cl)cc1`: the MIC came out at 8 µM (≈ 3.5 µg/mL) in series [1]; 4 µM (≈ 1.75 µg/mL) in [2]; 4 µM (≈ 1.75 µg/mL) in series [3]; 8 µM (≈ 3.5 µg/mL) in series [4]; 2 µM (≈ 0.875 µg/mL) in series [5]; 8 µM (≈ 3.5 µg/mL) in [7]. For the same compound, the values for the MIC in series [8] and in series [9] were 8 µM (≈ 3.5 µg/mL) and 2 µM (≈ 0.875 µg/mL), respectively. Besides, the logP in series [6] was determined as 6.36.
